Legend:
Hepatotoxicity [1] = test system: Hepatotoxicity;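 on HepSE bilirubinemia: bilirubinemia hepatic side effect score drawn from the DILIps training data, a prediction system for drug-induced liver injury; call rule not given here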;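 on HepSE cholelithiasis: hepatic side effect score for cholelithiasis, drawn from the DILIps training data for predicting drug-induced liver injury; call rule not given here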;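 on HepSE cirrhosis: cirrhosis hepatic side effect score taken from the DILIps (drug-induced liver injury prediction) training set; call rule not given here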;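 on HepSE elevated liver function tests: hepatic side effect score for raised liver function tests, as recorded in the DILIps training set used for predicting drug-induced liver injury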; on HepSE hepatic failure: call rule not given here;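 on HepSE hepatomegaly: hepatic side effect score for hepatomegaly, taken from the training set of the DILIps drug-induced liver injury prediction system; call rule not given here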; on HepSE liver disease: call rule not given here
Hepatotoxicity [2] = test system: Hepatotoxicity; remark: listed apart in the source;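 on HepSE bilirubinemia: bilirubinemia hepatic side effect score drawn from the DILIps training data, a prediction system for drug-induced liver injury; call rule not given here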;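 on HepSE cholelithiasis: hepatic side effect score for cholelithiasis, drawn from the DILIps training data for predicting drug-induced liver injury; call rule not given here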;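 on HepSE cirrhosis: cirrhosis hepatic side effect score taken from the DILIps (drug-induced liver injury prediction) training set; call rule not given here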;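 on HepSE elevated liver function tests: hepatic side effect score for raised liver function tests, as recorded in the DILIps training set used for predicting drug-induced liver injury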; on HepSE hepatic failure: call rule not given here;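 on HepSE hepatomegaly: hepatic side effect score for hepatomegaly, taken from the training set of the DILIps drug-induced liver injury prediction system; call rule not given here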; on HepSE liver disease: call rule not given here
Hepatotoxicity [3] = test system: Hepatotoxicity; remark: listed apart in the source;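 on HepSE bilirubinemia: bilirubinemia hepatic side effect score drawn from the DILIps training data, a prediction system for drug-induced liver injury; call rule not given here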;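 on HepSE cholelithiasis: hepatic side effect score for cholelithiasis, drawn from the DILIps training data for predicting drug-induced liver injury; call rule not given here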;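 on HepSE cirrhosis: cirrhosis hepatic side effect score taken from the DILIps (drug-induced liver injury prediction) training set; call rule not given here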;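 on HepSE elevated liver function tests: hepatic side effect score for raised liver function tests, as recorded in the DILIps training set used for predicting drug-induced liver injury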; on HepSE hepatic failure: call rule not given here;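 on HepSE hepatomegaly: hepatic side effect score for hepatomegaly, taken from the training set of the DILIps drug-induced liver injury prediction system; call rule not given here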; on HepSE liver disease: call rule not given here
Hepatotoxicity [4] = test system: Hepatotoxicity; remark: listed apart in the source;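 on HepSE bilirubinemia: bilirubinemia hepatic side effect score drawn from the DILIps training data, a prediction system for drug-induced liver injury; call rule not given here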;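 on HepSE cholelithiasis: hepatic side effect score for cholelithiasis, drawn from the DILIps training data for predicting drug-induced liver injury; call rule not given here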;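 on HepSE cirrhosis: cirrhosis hepatic side effect score taken from the DILIps (drug-induced liver injury prediction) training set; call rule not given here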;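 on HepSE elevated liver function tests: hepatic side effect score for raised liver function tests, as recorded in the DILIps training set used for predicting drug-induced liver injury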; on HepSE hepatic failure: call rule not given here;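 on HepSE hepatomegaly: hepatic side effect score for hepatomegaly, taken from the training set of the DILIps drug-induced liver injury prediction system; call rule not given here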; on HepSE liver disease: call rule not given here
Hepatotoxicity [5] = test system: Hepatotoxicity; remark: listed apart in the source; on HepSE hepatic failure: call rule not given here
Hepatotoxicity [6] = test system: Hepatotoxicity; remark: listed apart in the source; on HepSE hepatic failure: call rule not given here
Hepatotoxicity [7] = test system: Hepatotoxicity; remark: listed apart in the source
Hepatotoxicity [8] = test system: Hepatotoxicity; remark: listed apart in the source
Hepatotoxicity [9] = test system: Hepatotoxicity; remark: listed apart in the source
Hepatotoxicity [10] = test system: Hepatotoxicity; remark: listed apart in the source
Hepatotoxicity [11] = test system: Hepatotoxicity; remark: listed apart in the source
Hepatotoxicity [12] = test system: Hepatotoxicity; remark: listed apart in the source
Hepatotoxicity [13] = test system: Hepatotoxicity; remark: listed apart in the source
Hepatotoxicity [14] = test system: Hepatotoxicity; remark: listed apart in the source

Structure (SMILES) | HepSE_bilirubinemia (Hepatotoxicity [1]) | HepSE_cholelithiasis (Hepatotoxicity [2]) | HepSE_hepatic failure (Hepatotoxicity [3]) | HepSE_hepatitis (Hepatotoxicity [4]) | HepSE_hepatomegaly (Hepatotoxicity [5]) | HepSE_hepatic necrosis (Hepatotoxicity [6]) | HepSE_cirrhosis (Hepatotoxicity [7]) | HepSE_liver fatty (Hepatotoxicity [8]) | HepSE_elevated liver function tests (Hepatotoxicity [9]) | HepSE_liver disease (Hepatotoxicity [10]) | HepSE_jaundice (Hepatotoxicity [11]) | HepSE_cholecystitis (Hepatotoxicity [12]) | HepSE_Combined Scores (Hepatotoxicity [13]) | HepSE_liver function tests abnormal (Hepatotoxicity [14]) | other results
C[C@H]1c2cccc(O)c2C(=O)C2=C(O)[C@]3(O)C(=O)C(C(N)=O)=C(O)[C@@H](N(C)C)[C@@H]3[C@@H](O)[C@@H]21.O [DOXYCYCLINE] | 0 | 0 | 0 | 0 | 0 | 0 | 0 | 0 | 0 | 0 | 0 | 0 | 0 | 0 | 
CCCCCc1cc(O)c2c(c1)OC(C)(C)[C@@H]1CCC(C)=C[C@@H]21 [DRONABINOL] | 0 | 0 | 0 | 0 | 0 | 0 | 0 | 0 | 0 | 0 | 0 | 0 | 0 | 0 | 
CNCC[C@H](Oc1cccc2ccccc12)c1cccs1 [DULOXETINE] |  |  |  |  |  |  |  |  |  |  |  |  |  |  | HepSE_bilirubinemia (Hepatotoxicity [1]; Liver): 0; HepSE_cholelithiasis (Hepatotoxicity [2]; Liver): 0; HepSE_hepatic failure (Hepatotoxicity [3]; Liver): 0; HepSE_hepatitis (Hepatotoxicity [4]; Liver): 1; HepSE_hepatomegaly (Hepatotoxicity [5]; Liver): 0; HepSE_hepatic necrosis (Hepatotoxicity [6]; Liver): 0; HepSE_cirrhosis (Hepatotoxicity [7]; Liver): 0; HepSE_liver fatty (Hepatotoxicity [8]; Liver): 1; HepSE_elevated liver function tests (Hepatotoxicity [9]; Liver): 0; HepSE_liver disease (Hepatotoxicity [10]; Liver): 0; HepSE_jaundice (Hepatotoxicity [11]; Liver): 1; HepSE_cholecystitis (Hepatotoxicity [12]; Liver): 0; HepSE_Combined Scores (Hepatotoxicity [13]; Liver): 3; HepSE_liver function tests abnormal (Hepatotoxicity [14]; Liver): 0
C[C@]12C=CC(=O)N[C@@H]1CC[C@@H]1[C@@H]2CC[C@]2(C)[C@@H](C(=O)Nc3cc(C(F)(F)F)ccc3C(F)(F)F)CC[C@@H]12 [DUTASTERIDE] | 0 | 0 | 0 | 0 | 0 | 0 | 0 | 0 | 0 | 0 | 0 | 0 | 0 | 0 | 
Clc1ccc(COC(Cn2ccnc2)c2ccc(Cl)cc2Cl)cc1 (stereo not drawn) [ECONAZOLE] | 0 | 0 | 0 | 0 | 0 | 0 | 0 | 0 | 0 | 0 | 0 | 0 | 0 | 0 | 
O=C(O)CN(CCN(CC(=O)O)CC(=O)O)CC(=O)O [EDETIC ACID] |  |  |  |  |  |  |  |  |  |  |  |  |  |  | HepSE_bilirubinemia (Hepatotoxicity [1]; Liver): 0; HepSE_cholelithiasis (Hepatotoxicity [2]; Liver): 0; HepSE_hepatic failure (Hepatotoxicity [3]; Liver): 0; HepSE_hepatitis (Hepatotoxicity [4]; Liver): 0; HepSE_hepatomegaly (Hepatotoxicity [5]; Liver): 0; HepSE_hepatic necrosis (Hepatotoxicity [6]; Liver): 0; HepSE_cirrhosis (Hepatotoxicity [7]; Liver): 0; HepSE_liver fatty (Hepatotoxicity [8]; Liver): 0; HepSE_elevated liver function tests (Hepatotoxicity [9]; Liver): 0; HepSE_liver disease (Hepatotoxicity [10]; Liver): 0; HepSE_jaundice (Hepatotoxicity [11]; Liver): 0; HepSE_cholecystitis (Hepatotoxicity [12]; Liver): 0; HepSE_Combined Scores (Hepatotoxicity [13]; Liver): 0; HepSE_liver function tests abnormal (Hepatotoxicity [14]; Liver): 0
O=C1Nc2ccc(Cl)cc2[C@@](C#CC2CC2)(C(F)(F)F)O1 [EFAVIRENZ] | 0 | 0 | 1 | 1 | 1 | 0 | 0 | 0 | 0 | 0 | 1 | 0 | 4 | 0 | 

— ChEMBL document CHEMBL1909294, “Translating clinical findings into knowledge in drug safety evaluation--drug induced liver injury prediction system (DILIps)” (PLoS Comput Biol, 2011)
